Data reported in patent US11998615B2, “Functionalized nanoparticles and their use in treating bacterial infections” (The Board of Trustees of the Leland Stanford Junior …, priority 2021, dated 2024).
Entries after “also recorded” stand apart in the source; their conditions may differ.

Columns and labels:
[1] = tested on: intra-macrophage PA (XDR); assay: 24 h intracellular infection model: intra-macrophage PA (XDR) in RAW 264.7 cells; type: cell-based, Pseudomonas aeruginosa; conditions: MOI 10, 3 μg/mL ciprofloxacin equivalent
From the text: FIGS. 5A-5C. […] Data shown reflect mean±SD of three replicates.
However, a critical gap exists in our general understanding of how macrophages respond physiologically to the thiol antioxidant inhibition strategy. Here, we will examine how the thiol antioxidant inhibition strategy (i.e., increased ROS levels) contributes to macrophages killing and intracellular persister cell death.

TNF-α = TNF-α secretion by RAW 264.7 cells; type: cell-based, murine; conditions: 2 μg/mL of ciprofloxacin
[2] = tested on: ciprofloxacin-induced persister cells from PA (XDR); assay: Eradication of ciprofloxacin-induced persister cells from PA (XDR); type: cell-based, Pseudomonas aeruginosa; conditions: 3 μg/mL ciprofloxacin equivalent, 24 h in PBS; persisters generated with 600 μg/mL ciprofloxacin
Description: FIGS. 3A-3E. […] Data shown reflect mean±SD of three replicates.
After removing the drugs, the surviving bacteria were enumerated. […] The steady-state level of H2O2 inside the unstressed aerobic bacterial cell has been projected to be about 50 nM (47). […] The H2O2 level was quantified by measuring the area under the curve (AUC) (FIGS. 3B, 3C).

[3] = tested on: extensively drug-resistant (XDR) PA; assay: Growth inhibition (MIC) of extensively drug-resistant PA; type: cell-based, Pseudomonas aeruginosa; conditions: for AuNC, concentration of ciprofloxacin within the AuNC
From the text: FIGS. 2A-2F. […] PA01 is sensitized (FIGS. 2A-2B). […]. […] Data shown reflect mean±SD of three replicates.
H2O2 contributes causatively to antibiotics lethality (48). H2O2 is generated as a downstream physiological consequence of antibiotics interacting with their traditional targets. […] Thus, the main challenge to reach lethal H2O2 levels in resistant bacteria is to design molecules that inhibit the antioxidant defense mechanisms. […].

For O=C(O)c1cn(C2CC2)c2cc(N3CCNCC3)c(F)cc2c1=O [ciprofloxacin], the “residual intra-macrophage bacteria (CFU), in words” value [1] was “fails; also recorded: no significant difference”, the “average TNF levels” value (TNF-α) was 53.75 ± 2 pg/mL and the “eradication of persister cells (in words)” value [2] was “fails; also recorded: survival persisters”. The “ciprofloxacin concentration that inhibits growth of PA (XDR)” value [3] was greater than 127.6 µg/mL.
